In test [1] the test system is angiogenesis induced by basic fibroblast growth factor (bFGF). The conditions noted are these: cited from earlier work.
Test [2] has as its system corneal angiogenesis induced by vascular endothelial growth factor (VEGF). Particulars: cited from earlier work.
Test [3] relates to human vascular endothelial cells (HUVECS). In words: Endothelial cell proliferation assay ([3H]-thymidine incorporation). It is filed as cell-based. Particulars: HUVEC, 20% serum, preliminary IC50 data, read-out: Inhibition of Endothelial Cell Proliferation (IC50 μM). (Dividing cells build labelled thymidine or BrdU into new DNA.)
Description: Endothelial Cell Proliferation Assay.
The human vascular endothelial cells (HUVECS) were cultured to peri-confluence (80%) in 20% serum and treated with thalidomide (standard) or its analog (40-400 μM). After 20 h, [^3H]-thymidine (2 μCi/ml) was added to the culture medium for 2-4 h. The [^3H]-thymidine incorporation was stopped with ice-cold PBS (3 washes) and the cells were incubated with cold 10% trichloroacetic acid (TCA) for 10 min at 4° C. The cells were further incubated with TCA at room temperature for 10 min and washed three times with PBS. The cells were solubilized overnight with 1N NaOH and neutralized with an equivalent amount of 1N HCl before radioactivity was determined. The anti-proliferative activity of thalidomide or its analog was computed as a percent inhibition of HUVECS mitogenic response to 20% serum (fetal calf serum).
The test system of another test is angiogenesis. The conditions noted are these: oral; cited from earlier work.
A further test relates to endothelial cells. The conditions noted are these: in vitro; cited from earlier work.

SMILES strings stand for the structures. A value given as a limit tells only on which side of the number the result lay.

Regarding `O=C1CC[C@H](N2C(=O)c3ccccc3C2=O)C(=O)N1` (single isomer, unassigned) [S(−)-enantiomer of thalidomide], the “anti-angiogenic activity of enantiomers, bFGF-induced corneal neovascularization” value in test [1] (comparison of enantiomers) is listed as “strongest anti-angiogenic activity”. Also, the “anti-angiogenic activity of enantiomers, VEGF-induced corneal neovascularization” value in test [2] (comparison of enantiomers) is listed as “strongest anti-angiogenic activity”.
Turning to `O=C1CCC(N2C(=O)c3ccccc3C2=O)C(=O)N1` (stereo not drawn) [Compound 1, thalidomide], the IC50 in test [3] was 200 µM. Further, the “effect on angiogenesis, orally in mice models” value in the test on angiogenesis is reported as “inhibitory effects”. In addition, the “effect on angiogenesis, bFGF induced corneal micropocket” value in test [1] (rabbit) is reported as “inhibitory effects”. In addition, the “inhibition of corneal angiogenesis” value in test [2] (rabbits, pellet with 500 or 750 ng VEGF, two daily feedings of 200 mg/kg, after the 5th day of treatment, P<0.0001) is on record as “statistically significant inhibition”. Besides, the “endothelial cell proliferation in treated cultures” value with endothelial cells is “significant decrease”.
`O=C1c2ccccc2C(=O)N1c1ccc2c(c1)CCC2` [Compound 5]: the IC50 in test [3] stood at 85 µM.
Regarding `O=C1c2ccccc2C(=O)N1C1CCCc2ccccc21` (stereo not drawn) [Compound 7], in test [3], the IC50 is greater than 400 µM.
For the compound `CCC(c1cccc2ccccc12)N1C(=O)c2ccccc2C1=O` (stereo not drawn) [Compound 29], in test [3], the IC50 was 45 µM.
As for `CCCCCCC(c1ccc(OC)c(OC)c1)N1C(=O)c2ccccc2C1=O` (stereo not drawn) [Compound 32], the IC50 in test [3] was less than 38.5 µM.
Still for that read-out and setting: next, `CCOc1ccccc1N1C(=O)c2ccccc2C1=O` [Compound 50]: 110 µM; `Cc1cc(N)ccc1N1C(=O)c2ccc(Cl)cc2C1=O` [Compound 51]: 350 µM.
On to `O=C1CC(N2C(=O)c3ccccc3C2=O)CC(=O)O1` [Compound 52], for which the IC50 in test [3] was greater than 400 µM.
Same read-out and setting: next, `O=C1NC(=O)c2c1cccc2[N+](=O)[O-]` [Compound 53]: greater than 400 µM.

Values taken from patent US7893071B2, “Synthesis and evaluation of novel phthalimide mimics as anti-angiogenic” (University of Virginia Patent Foundation, priority 2001, dated 2011).
